Data reported in patent US8426644B2, “Compositions and methods for inhibiting an isoform of human manganese superoxide dismutase” (MitoTek, LLC, priority 2005, dated 2013).
Numbering of substitutions follows the chain as printed.

Experiments:
[1] = target: T1, isoMnSOD (Mus musculus, UniProt P09671, DEL77-115); test: isoMnSOD peroxidative activity, cerebellum mitochondrial extracts on nitrocellulose strips (Example 20); format: biochemical; conditions: 1 μM of compound, 30 min at room temperature; cerebellum of 4 week mice; 1 mM hydrogen peroxide, luminol; FIG. 7
T1 construct: Mitochondrial pellets were lysed in 1% CHAPS detergent; from tissue; host or cells: mouse cerebellum mitochondria
T1 sequence (P09671 with tags, fused parts or gaps DEL77-115): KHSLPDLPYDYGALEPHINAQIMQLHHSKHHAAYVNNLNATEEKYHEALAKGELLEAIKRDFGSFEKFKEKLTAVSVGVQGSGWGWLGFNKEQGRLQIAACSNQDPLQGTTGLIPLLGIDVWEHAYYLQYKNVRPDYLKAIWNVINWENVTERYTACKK
Method: Protein extracts containing isoMnSOD were prepared from cerebellum from 4 week mice by first forming a liquid nitrogen powder, resuspended with five volumes of ice-cold lysis buffer (in mM: 20 HEPES-KOH, pH 7.5, 10 KCl, 1.5 MgCl2, 1 DTT, 1 EDTA, 1 EGTA, and 0.1 PMSF) containing 70 mM mannitol and 250 mM sucrose and homogenizing with a Dounce homogenizer. Extract was centrifuged at 750 g for 10 min at 4° C. and the supernatant was then centrifuged at 10,000 g for 15 min at 4° C. to pellet the mitochondrial pellet, which was then stored frozen. Mitochondrial pellets were lysed in 1% CHAPS detergent containing 50 mM Tris-Cl, pH 8.0, 500 mM NaCl and then loaded onto a native 5% polyacrylamide gel. Protein concentration was measured by using the Bradford protein assay kit. After transfer to nitrocellulose, nitrocellulose strips were incubated with 1 μM of compound in 50 mM Tris-HCl, 50 mM NaCl, 5 mM EDTA, pH 8.0 for 30 min at room temperature, then washed extensively with incubation buffer alone. The peroxidative activity of isoMnSOD was measured using 100 of Femtomole luminol (Pierce) containing 1 mM hydrogen peroxide per nitrocellulose strip and exposed to x-ray film.

[2] = tested on: AMP kinase phosphorylation at Thr172; test: Doxorubicin-induced activation of AMP kinase in heart explants, western immunoblot (Example 22); format: cell-based; conditions: rat heart explants
Method: Hearts from 4 week rats were excised and minced without trypsin in 50:50 medium M199:MCDB 10% FBA containing 5 mM Creatine, 2 mM L-carnitine and 5 mM taurine. Explants were incubated overnight at 37° C. in a 5% CO2 incubator untreated (Lane 1), with 1 mM doxorubicin (Lane 2), and with 1 mM doxorubicin and 4 μM 2-(3,4-dihydroxy-phenyl)-N-heptadec-8-enyl-acetamide (IV) (Lane 3). Explants were frozen at −70° C., liquid nitrogen powders were prepared and lysed and denatured in 2% SDS with 5% BME with boiling for 5 min. Protein extracts were examined by western immunoblotting using a rabbit monoclonal recognizing Phospho-AMP Kinase-α (Thr172) (CellSignal).
The AMP kinase was activated by an elevated AMP(high)/ATP(low) ratio due to cellular and environmental stress, such as heat shock, hypoxia and ischemia. Elevated AMP/ATP ratio and activation of AMPK by phosphorylation at Thr172 can also occur by uncoupling mitochondrial oxidative phosphorylation from respiration with oligomycin and thereby loss of mitochondrial ATP synthesis.

[3] = tested on: Rats; test: Doxorubicin-induced heart failure in rats (Example 23); format: in vivo, rat; conditions: IP 10 mg/kg doxorubicin, FIG. 10
Method: Rats were treated with IP injections of 10 mg/kg doxorubicin. Left Ventricular Developed Pressure (LVDP): Systolic Pressure-Diastolic Pressure, which is an indicator of ventricular systolic function; dP/dtmax: Maximal rate of pressure development, which is an indicator of ventricular systolic function; dP/dtmin Minimal rate of pressure development, which is an indicator of ventricular diastolic function.

[4] = tested on: PC12 neuroendocrine cell line; test: Hydrogen peroxide-mediated cell death, Live/Dead assay (Example 21); format: cell-based; conditions: PC12 preincubated with 4 μM for 1 hr, then 1 mM hydrogen peroxide, 20 hrs; FIG. 8
Method: Neuroendocrine cell line, PC12, was cultured in DMEM medium containing 10% FBS on plates treated with collagen. Freshly passed cells (1×10(7) cells) were preincubated with 4 μM 2-(3,4-dihydroxy-phenyl)-N-heptadec-8-enyl-acetamide (IV), 2-(2,5-dihydroxy-phenyl)-N-heptadec-8-enyl-acetamide (V) (containing about 30% impurity), or other compound for 1 hr and then treated with 1 mM hydrogen peroxide. After 20 hrs, cultures were examined by the Live/Dead assay (Molecular Probes).

[5] = target: T2, isoMnSOD (Rattus norvegicus, UniProt P07895, DEL77-115); test: Immunodetection of isoMnSOD in treated cerebella explants (Example 24); format: cell-based; conditions: cerebella explants of 4 week rat, one hour at 37° C., 5 μM OA-diHPAc; western immunoblot
T2 construct: Cerebella explants from one 4 week rat, strain WKY; from tissue; host or cells: rat (WKY) cerebellum explants
T2 sequence (P07895 with tags, fused parts or gaps DEL77-115): T1 sequence (P09671 with tags, fused parts or gaps DEL77-115) with A33T, A40V, T151S, E152Q, T155I, A156V
Method: Immuno detection of isoMnSOD and measurement of isoMnSOD (a) and measurement of caspase 9 cleavage (b) in cerebella explants from 4 week old rat cerebellum and treated with 2-(3,4-dihydroxy-phenyl)-N-heptadec-8-enyl-acetamide (IV). Cerebella explants from one 4 week rat, strain WKY, were incubated in aerated 4 mL of M199:MCDB 10% FBS and incubated one hour at 37° C. in a roller bottle for maximum oxygenation, with or without 5 μM OA-diHPAc. Explants were harvested, quick frozen, and then lysed in boiling SDS and 5% BME and protein extracts were separated in a 4-12% polyacrylamide gel (Novex) and examined by western immunoblot. […] The peptide sequence used as the antigen to form the MnSOD E2/E4 antibody is at the active site of isoMnSOD and modification of isoMnSOD by 2-(3,4-dihydroxy-phenyl)-N-heptadec-8-enyl-acetamide (IV) appears to block epitope recognition. RT/PCR analysis of the MnSOD mRNAs confirmed that the mRNA encoding isoMnSOD is present in treated explants.

[6] = tested on: altMnSODreport reporter expression; test: Reporter gene system (altMnSODreport) to analyze compounds for toxicity (Example 17); format: cell-based; conditions: cells comprising the reporter gene system; written in present tense
Excerpt: The test reporter system utilizes a recombinant DNA construct that contains an in frame fusion of a genomic fragment spanning MnSOD Exon 2 to Exon 4, but which also harbors a mutant MnSOD Exon 3, (i.e. frameshift mutation), to a B-galactosidase gene, or Green Fluorescence Protein (“altMnSODreport”). Alternative splicing and skipping of MnSOD (coding) Exon 3 will result in a fusion protein comprising a short stretch of MnSOD E2 and E4 coding sequences N-terminal to a reporter protein; the MnSODE2E4 amino acid sequence is 20 amino acids and should not interfere with the expression of the reporter. […]
Breast cancer cell line, MDA-MB-435, Her-2/neu over-expressing (ATCC), fibroblast cells lines NIH3T3 and B104, which are NIH3T3 cells transfected with the rat ErbB2/Her2 oncogene, and normal primary cells (Clonetics; rat cardiomyocytes, donated by Kathryn Maschhoff, MD PhD, Neonatology, University of Pennsylvania) are treated with doxorubicin alone and in combination with the rat ErbB2/Her2 17.6.4 monoclonal antibody, which downregulates the human and rat Her2 receptor (Zhang et al., 1999) (Oncogene), and Herceptin™ (Genentech). It is also determined if the Her2 mAbs induces isoMnSOD expression in untransfected cells and cells transfected with altMnSODreport. […]

[7] = tested on: isoMnSOD expression; test: Doxorubicin induction of isoMnSOD expression in adult heart explants, Western Blot (Example 9); format: cell-based, rat; conditions: 3 days, 0.1 nM to 1.0 μM Doxorubicin in AdvDMEM 2% FBS, FIG. 3
Method: Briefly, after rats (5 weeks old) were killed by decapitation, the hearts were aseptically excised and residual blood was removed. The heart was perfused in Joklik's medium (containing Joklik's minimal essential medium, 25 mmol/L glutamic acid, 30 mmol/L taurine, and 1 mmol/L adenosine) without recirculation on a modified Langendorff apparatus for approximately 10 minutes at 37° C. The perfusion was then continued for 30 minutes at the same temperature, with recirculation in Joklik's medium containing collagenase type II (100 U/mL). After perfusion, the ventricles were cut into small pieces and tritulated in 0.05% Trypsin/EDTA for 10 min. Cardiac explants were cultured overnight on laminin-coated (20 μg per well) 35-mm six-well plates in medium 199 containing 5% FBS, 5 mM creatine, 2 mM L-carnitine, and 5 mM taurine. Explants were treated with doxorubicin (Sigma) shortly after plating for 24 hrs at 1 mM.

[8] = tested on: mitochondrial peroxidase activity (isoMnSOD); test: Peroxidative assay (ROS-activity blot) of mitochondrial extracts from treated pancreatic explants (Example 12); format: cell-based, pig; conditions: pancreatic explant cultured 1 hr at 37° C. with equal volume of 2 μM compound, FIG. 1
Method: F10 medium was used throughout the procedure. Pancreas (8 grams) from a 3 kilo pig was minced, washed twice, and 1 g of tissue was resuspended in 5 ml of F10 medium. […] Explants were stored frozen at −70° C. Tissue was homogenized in Buffer A at 4° C. and mitochondria was isolated by differential centrifugation and stored frozen at −70° C. Peroxidative assay of native mitochondrial extracts analyzed by the ROS-activity blot.

[9] = target: T3, MnSOD-Exon3-deleted isoform (isoMnSOD) (Homo sapiens, UniProt P04179); test: Detection of inhibitors bound to isoMnSOD by combined immunoprecipitation/western blot (Example 13); format: binding; conditions: immunoprecipitation with anti-dopamine or anti-serotonin antibody, isoMnSOD detected; FIG. 2A, 2B
T3 sequence (P04179 25-183 isoform P04179-2 limits assumed): T1 sequence (P09671 with tags, fused parts or gaps DEL77-115) with A40V, H46Q, E66D, V75A, Q93R, R95H, S102P, T155M
Method: Covalent modification of the MnSOD-Exon3-deleted isoform was measured by a combined immunoprecipitation/western blot analysis. Immunoblots for detecting AA-DA, EPA-DA, DHA-DA, C18:4(ω-3)-DA adducts were performed using anti-dopamine rabbit polyclonal (Chemicon) and anti-serotonin goat polyclonal antibodies (ImmunoStar), respectively. After immunoprecipitating using an antibody against the inhibitor, isoMnSOD was detected as described above.

[10] = tested on: isoMnSOD; test: Inhibition of pro-oxidant activity of isoMnSOD, at least one of the assays of the Examples; conditions: according to at least one of the assays provided in the Examples
[11] = tested on: isoMnSOD; test: Drug inhibition method: peroxidative activity of isoMnSOD on PVDF strips (Example 4); conditions: 1 μM test compound in TBS, 30 minutes; pancreatic mitochondria native extracts on PVDF; 1 mM H2O2, luminol; FIG. 4
Method: Each test compound was prepared by mixing 5 μL of a 1 mM test compound stock solution in ethanol with 5 μL of 0.1 M KOH, followed by the addition of 5 ml of TBS for a final concentration of 1 μM test compound. Equal amounts of native protein extracts from pancreatic mitochondria (obtained according to the protocol of Example 5) were loaded in separate wells and resolved in a 7% PAGE gel without SDS, electrotransferred to PVDF and divided into strips. Each PVDF strip was incubated with 1 μM of test compound in TBS for 30 minutes, washed twice in TBS for 20 minutes, and the peroxidative activity of isoMnSOD was measured by incubation of each strip with 1 mM H2O2 in 0.4 ml of the luminol solution contained within the Femtomole chemiluminescence assay kit (Pierce) and exposed to x-ray film (FIG. 4).
All procedures were carried out at 4° C. Mitochondria were obtained from a liquid nitrogen powder of one pig pancreas (˜8 g), which was resuspended in 15 ml of buffer A containing following protease inhibitors: 1 μg/ml aprotinin, 1 μg/ml pepstatin A, 1 μg/ml chymostatin A, 2 μg/ml leupeptin, 2 μM benzamide hydrochloride, and 1 μM phenylmethylsulfonyl fluoride. Tissue was broken with a Potter homogenizer and the homogenate was centrifuged for 10 min at 800 g to remove cell debris. The supernatant was centrifuged at 10,000 g from 15 min to recover mitochondria. The mitochondrial pellet was washed twice with a hand held Dounce homogenizer and mitochondria were stored frozen. Mitochondria were lysed by slowly adding 1 ml of M-Per (Pierce) containing 1/10 vol 5M NaCl and 1/10 vol Buffer A. The mitochondrial lysate was subsequently clarified by centrifugation for 10 min at 2000 g.

Molecule	Inhibition [1]	binding to isoMnSOD (covalent modification) [9]	inhibition of mitochondrial peroxidase activity [8]	inhibition of pro-oxidant activity of isoMnSOD [10]	inhibition of peroxidative activity of isoMnSOD [11]	also measured
CCCCCCCC/C=C\CCCCCCCNC(=O)Cc1cc(O)ccc1O [2-(2,5-dihydroxy-phenyl)-N-heptadec-8-enyl-acetamide]	yes	–	–	–	–	–
COc1cccc2c1C(=O)c1c(O)c3c(c(O)c1C2=O)C[C@@](O)(C(=O)CO)C[C@@H]3O[C@H]1C[C@H](N)[C@H](O)[C@H](C)O1 [Doxorubicin]	–	–	–	–	–	Activation of AMP kinase by phosphorylation at Thr172 ([2]; 1 mM doxorubicin overnight, FIG. 9 Lane 2): Activation; expression of altMnSOD report [6]: causes an increase; isoMnSOD expression [7]: induced isoMnSOD expression
CCCCC/C=C\C/C=C\C/C=C\C/C=C\CCCC(=O)NCCc1c[nH]c2ccc(O)cc12 [arachidonoyl-serotonin, arachidonoyl serotonin]	–	able to bind to isoMnSOD	inhibited the mitochondrial peroxidase activity	inhibit pro-oxidant activity of isoMnSOD	–	–
CC/C=C\C/C=C\C/C=C\C/C=C\C/C=C\CCCC(=O)NCCc1ccc(O)c(O)c1 [eicosapentaenoyl (EPA)-dopamine, eicosapentaenoyl dopamine]	–	–	did not inhibit peroxidase activity to the same effect	inhibit pro-oxidant activity of isoMnSOD	inhibit peroxidative activity more significantly than the other compounds	–
Arachidonic acid-biotinimide	yes	–	–	–	–	–

Further lines, with some results ahead:

Inhibition [1]	binding to isoMnSOD (covalent modification) [9]	Molecule	inhibition of mitochondrial peroxidase activity [8]	inhibition of pro-oxidant activity of isoMnSOD [10]	inhibition of peroxidative activity of isoMnSOD [11]	also measured
yes	–	CCCCCCCC/C=C\CCCCCCCNC(=O)Cc1ccc(O)c(O)c1 [2-(3,4-dihydroxy-phenyl)-N-heptadec-8-enyl-acetamide]	–	–	–	suppression of doxorubicin-induced AMP kinase activation ([2]; 1 mM doxorubicin and 4 μM compound overnight, FIG. 9 Lane 3): suppresses this activation; cardio protection of doxorubicin-induced heart failure (LVDP, dP/dtmax, dP/dtmin) [3]: exerts cardio protection; Protection of hydrogen peroxide-mediated cell death [4]: Protection; antigenicity of isoMnSOD with MnSOD E2/E4 peptide antibody and MnSOD antibody [5]: loss of antigenicity with the MnSOD E21E4 peptide antibody but not with the MnSOD antibody
no	–	COC1=C(OC)C(=O)C(CCCCCCCCCCO)=C(C)C1=O [Idebenone]	–	–	–	–
–	able to bind to isoMnSOD	CC/C=C\C/C=C\C/C=C\C/C=C\C/C=C\C/C=C\CCC(=O)NCCc1ccc(O)c(O)c1 [docosahexaenoyl (DHA)-dopamine, docosahexaenoyl dopamine]	inhibited the mitochondrial peroxidase activity	inhibit pro-oxidant activity of isoMnSOD	inhibit peroxidative activity more significantly than the other compounds	–
–	able to bind to isoMnSOD	C18:4(ω-3)-dopamine	inhibited the mitochondrial peroxidase activity	inhibit pro-oxidant activity of isoMnSOD	inhibit peroxidative activity more significantly than the other compounds	–
yes	–	Prostaglandin A1-biotinimide	–	–	–	–
